Results: ChEMBL document CHEMBL1201862, “PubChem BioAssay data set” (2004)
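Exposure lasted 48 hours, with cells grown in 96-well plates and compounds tested at five concentrations. GI50 marks 50% less growth.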 Active and inactive are the calls of the source. No stated cut-off is given here; in the data, active = GI50 up to about 1.1 µM and inactive = higher.

How the values were obtained:
Assay in all cases: inhibition of tumour cell growth, NCI panel, 48 h
T47D = system: T47D
Malme-3M = system: Malme-3M
U-251 = system: U-251
786-0 = system: 786-0
SF-539 = system: SF-539
MDA-MB-435 = system: MDA-MB-435
KM12 = system: KM12
HL-60 = system: HL-60
M14 = system: M14
UO-31 = system: UO-31
SK-MEL-5 = system: SK-MEL-5
SF-295 = system: SF-295
HOP-92 = system: HOP-92
CAKI-1 = system: CAKI-1
NCI-H460 = system: NCI-H460
CCRF-CEM = system: CCRF-CEM
UACC-62 = system: UACC-62
MCF7 = system: MCF7
HCT-15 = system: HCT-15
A498 = system: A498
ACHN = system: ACHN
SW-620 = system: SW-620
IGROV-1 = system: IGROV-1
OVCAR-3 = system: OVCAR-3
SN12C = system: SN12C
NCI-H23 = system: NCI-H23
SNB-19 = system: SNB-19
NCI-H522 = system: NCI-H522
HT-29 = system: HT-29
HOP-62 = system: HOP-62
HCT-116 = system: HCT-116
SF-268 = system: SF-268
SK-MEL-28 = system: SK-MEL-28
SK-MEL-2 = system: SK-MEL-2
K562 = system: K562
BT-549 = system: BT-549
A549 = system: A549
SK-OV-3 = system: SK-OV-3
MDA-N = system: MDA-N
OVCAR-5 = system: OVCAR-5
NCI/ADR-RES = system: NCI/ADR-RES
LOX IMVI = system: LOX IMVI
TK-10 = system: TK-10
UACC-257 = system: UACC-257
DU-145 = system: DU-145
NCI-H226 = system: NCI-H226
MOLT-4 = system: MOLT-4
OVCAR-4 = system: OVCAR-4
RXF 393 = system: RXF 393
HCC 2998 = system: HCC 2998
RPMI-8226 = system: RPMI-8226
Hs-578T = system: Hs-578T
MDA-MB-231 = system: MDA-MB-231
OVCAR-8 = system: OVCAR-8
EKVX = system: EKVX
COLO 205 = system: COLO 205
PC-3 = system: PC-3
SNB-75 = system: SNB-75

N=C(N)SCc1cc(Cl)cc(Cl)c1O
GI50 (T47D): 20.9 µM (inactive) | GI50 (Malme-3M): 21.6 µM (inactive) | GI50 (U-251): 15.7 µM (inactive) | GI50 (786-0): 18 µM (inactive) | GI50 (SF-539): 3.58 µM (inactive) | GI50 (MDA-MB-435): 19.7 µM (inactive) | GI50 (KM12): 18.4 µM (inactive) | GI50 (HL-60): 3.21 µM (inactive) | GI50 (M14): 16.6 µM (inactive) | GI50 (UO-31): 15.5 µM (inactive) | GI50 (SK-MEL-5): 16.6 µM (inactive) | GI50 (SF-295): 25.5 µM (inactive) | GI50 (HOP-92): 15.7 µM (inactive) | GI50 (CAKI-1): 18.6 µM (inactive) | GI50 (NCI-H460): 18.1 µM (inactive) | GI50 (CCRF-CEM): 13.7 µM (inactive) | GI50 (UACC-62): 17.3 µM (inactive) | GI50 (MCF7): 25.2 µM (inactive) | GI50 (HCT-15): 20.1 µM | GI50 (A498): 22.3 µM (inactive) | GI50 (ACHN): 19.5 µM (inactive) | GI50 (SW-620): 20.7 µM (inactive) | GI50 (IGROV-1): 18.5 µM (inactive) | GI50 (OVCAR-3): 17.2 µM (inactive) | GI50 (SN12C): 17.4 µM (inactive) | GI50 (NCI-H23): 19 µM (inactive) | GI50 (SNB-19): 18.2 µM (inactive) | GI50 (NCI-H522): 15.9 µM (inactive) | GI50 (HT-29): 16 µM (inactive) | GI50 (HOP-62): 18.8 µM (inactive) | GI50 (HCT-116): 16.3 µM (inactive) | GI50 (SF-268): 21.8 µM (inactive) | GI50 (SK-MEL-28): 22.6 µM (inactive) | GI50 (SK-MEL-2): 18.2 µM (inactive) | GI50 (K562): 19.8 µM (inactive) | GI50 (BT-549): 18.7 µM (inactive) | GI50 (A549): 20.7 µM (inactive) | GI50 (SK-OV-3): 36.1 µM (inactive) | GI50 (MDA-N): 16.4 µM (inactive) | GI50 (OVCAR-5): 16.3 µM (inactive) | GI50 (NCI/ADR-RES): 26.2 µM (inactive) | GI50 (LOX IMVI): 18.5 µM (inactive) | GI50 (TK-10): 18.8 µM (inactive) | GI50 (UACC-257): 16.9 µM (inactive) | GI50 (DU-145): 17.6 µM (inactive) | GI50 (NCI-H226): 20.3 µM (inactive) | GI50 (MOLT-4): 24.4 µM (inactive) | GI50 (OVCAR-4): 23.3 µM (inactive) | GI50 (RXF 393): 19.9 µM (inactive) | GI50 (HCC 2998): 17.7 µM (inactive) | GI50 (RPMI-8226): 19.8 µM (inactive) | GI50 (Hs-578T): 20.4 µM (inactive) | GI50 (MDA-MB-231): 15.1 µM (inactive) | GI50 (OVCAR-8): 18.3 µM (inactive) | GI50 (EKVX): 15.2 µM (inactive) | GI50 (COLO 205): 17.7 µM (inactive) | GI50 (PC-3): 19.3 µM (inactive)

CCOC(=O)c1c(N2CCOCC2)ncn(-c2cccc(Cl)c2)c1=O
GI50 (T47D): > 100 µM (inactive) | GI50 (Malme-3M): > 100 µM (inactive) | GI50 (U-251): > 100 µM (inactive) | GI50 (786-0): > 100 µM (inactive) | GI50 (SF-539): > 100 µM (inactive) | GI50 (MDA-MB-435): > 100 µM (inactive) | GI50 (KM12): > 100 µM (inactive) | GI50 (HL-60): > 100 µM (inactive) | GI50 (M14): > 100 µM (inactive) | GI50 (SF-295): > 100 µM (inactive) | GI50 (HOP-92): > 100 µM (inactive) | GI50 (CAKI-1): > 100 µM (inactive) | GI50 (NCI-H460): > 100 µM (inactive) | GI50 (CCRF-CEM): > 100 µM (inactive) | GI50 (UACC-62): > 100 µM (inactive) | GI50 (MCF7): > 100 µM (inactive) | GI50 (HCT-15): > 100 µM | GI50 (A498): 0.159 µM (active) | GI50 (ACHN): > 100 µM (inactive) | GI50 (SW-620): > 100 µM (inactive) | GI50 (IGROV-1): > 100 µM (inactive) | GI50 (OVCAR-3): > 100 µM (inactive) | GI50 (SN12C): > 100 µM (inactive) | GI50 (NCI-H23): > 100 µM (inactive) | GI50 (SNB-19): > 100 µM (inactive) | GI50 (NCI-H522): > 100 µM (inactive) | GI50 (HT-29): > 100 µM (inactive) | GI50 (HOP-62): > 100 µM (inactive) | GI50 (HCT-116): > 100 µM (inactive) | GI50 (SF-268): > 100 µM (inactive) | GI50 (SK-MEL-28): > 100 µM (inactive) | GI50 (SK-MEL-2): > 100 µM (inactive) | GI50 (K562): > 100 µM (inactive) | GI50 (BT-549): > 100 µM (inactive) | GI50 (A549): > 100 µM (inactive) | GI50 (SK-OV-3): > 100 µM (inactive) | GI50 (MDA-N): > 100 µM (inactive) | GI50 (OVCAR-5): > 100 µM (inactive) | GI50 (NCI/ADR-RES): > 100 µM (inactive) | GI50 (SNB-75): > 100 µM (inactive) | GI50 (LOX IMVI): > 100 µM (inactive) | GI50 (TK-10): > 100 µM (inactive) | GI50 (UACC-257): > 100 µM (inactive) | GI50 (DU-145): > 100 µM (inactive) | GI50 (NCI-H226): > 100 µM (inactive) | GI50 (MOLT-4): > 100 µM (inactive) | GI50 (OVCAR-4): > 100 µM (inactive) | GI50 (RXF 393): > 100 µM (inactive) | GI50 (HCC 2998): > 100 µM (inactive) | GI50 (RPMI-8226): > 100 µM (inactive) | GI50 (Hs-578T): > 100 µM (inactive) | GI50 (MDA-MB-231): > 100 µM (inactive) | GI50 (OVCAR-8): > 100 µM (inactive) | GI50 (EKVX): > 100 µM (inactive) | GI50 (COLO 205): > 100 µM (inactive) | GI50 (PC-3): > 100 µM (inactive)
